Data reported in US20240409531A1, “BENZOXAZINONE DERIVATIVES AS SELECTIVE CYTOTOXIC AGENTS” (Merck Sharp & Dohme LLC, priority 2021, published 2024).

These compounds were tested on PBMCs infected with VSV-G pseudotyped HIV virus (VSV-G/pNLGI-P2A-ΔEnv) (assay: cells). Settings: Homo sapiens, PBMC, read-out: TACK EC50 (nM).
Format: cell-based
Work on `CC(F)(F)[C@@]1(C#CC2CC2)OC(=O)Nc2cc(Cn3cnccc3=O)c(Cl)cc21` [Example 26, (S)-6-chloro-4-(cyclopropylethynyl)-4-(1,1-difluoroethyl)-7-((6-oxopyrimidin-1(6H)-yl)methyl)-1,4-dihydro-2H-benzo[d][1,3]oxazin-2-one] yielded an EC50 of 16 nM.
For `CC(F)(F)[C@@]1(C#CC2CC2)OC(=O)Nc2cc(Cn3ccnc(N)c3=O)c(Cl)cc21` [Example 25, (S)-7-((3-amino-2-oxopyrazin-1(2H)-yl)methyl)-6-chloro-4-(cyclopropylethynyl)-4-(1,1-difluoroethyl)-1,4-dihydro-2H-benzo[d][1,3]oxazin-2-one], the EC50 was 37 nM.
Work on `COCc1cc(=O)n(Cc2cc3c(cc2Cl)[C@@](C#CC2CC2)(C(C)(F)F)OC(=O)N3)cn1` [Example 27, (S)-6-chloro-4-(cyclopropylethynyl)-4-(1,1-difluoroethyl)-7-((4-(methoxymethyl)-6-oxopyrimidin-1(6H)-yl)methyl)-1,4-dihydro-2H-benzo[d][1,3]oxazin-2-one] yielded an EC50 of 16 nM.
With `CC(F)(F)[C@@]1(C#CC2CC2)OC(=O)Nc2cc(Cc3ccnc(N)n3)ccc21` [Example 37, (S)-7-((2-aminopyrimidin-4-yl)methyl)-4-(cyclopropylethynyl)-4-(1.1-difluoroethyl)-1.4-dihydro-2H-benzo[d][1.3]oxazin-2-one] the EC50 was 43 nM.
With `Nc1cncn(Cc2cc3c(cc2F)[C@@](C#CC2CC2)(C(F)(F)F)OC(=O)N3)c1=O` (single isomer, unassigned) [Example 3A] the EC50 was 46 nM.
`COc1cc(=O)n(Cc2cc3c(cc2F)[C@@](C#CC2CC2)(C(F)(F)F)OC(=O)N3)cn1` (single isomer, unassigned) [Example 4A] showed an EC50 of 25 nM.
Compound `CC(F)(F)[C@@]1(C#CC2CC2)OC(=O)Nc2cc(Cc3ccnc(N)c3C#N)c(F)cc21` [Example 36, (S)-2-amino-4-((4-(cyclopropylethynyl)-4-(1,1-difluoroethyl)-6-fluoro-2-oxo-1,4-dihydro-2H-benzo[d][1,3]oxazin-7-yl)methyl)nicotinonitrile] has an EC50 of 18 nM.
Compound `Nc1nccn(Cc2cc3c(cc2Cl)[C@@](C#CC2CC2)(C(F)(F)F)OC(=O)N3)c1=O` [Example 16, (S)-7-((3-amino-2-oxopyrazin-1(2H)-yl)methyl)-6-chloro-4-(cyclopropylethynyl)-4-(trifluoromethyl)-1,4-dihydro-2H-benzo[d][1,3]oxazin-2-one] has an EC50 of 113 nM.
With `COCc1cc(=O)n(Cc2cc3c(cc2F)[C@@](C#CC2CC2)(C(F)(F)F)OC(=O)N3)cn1` (single isomer, unassigned) [Example 5A] the EC50 was 35 nM.
`CC(F)(F)[C@@]1(C#CC2CC2)OC(=O)Nc2cc(Cn3ccnc(N)c3=O)ccc21` [Example 8, (S)-7-((3-amino-2-oxopyrazin-1(2H)-yl)methyl)-4-(cyclopropylethynyl)-4-(1,1-difluoroethyl)-1,4-dihydro-2H-benzo[d][1,3]oxazin-2-one] was tested, and the EC50 was 30 nM.
In the case of `O=C1Nc2cc(Cn3cnc(C(F)F)cc3=O)c(F)cc2[C@@](C#CC2CC2)(C(F)(F)F)O1` (single isomer, unassigned) [Example 7A], the EC50 is reported as 45 nM.
For `NS(=O)(=O)c1ccc(Cc2ccc3c(c2)NC(=O)O[C@]3(C#CC2CC2)C(F)(F)F)cc1` (single isomer, unassigned) [Example 30A], the EC50 was 755 nM.
`O=C1Nc2cc(Cn3cnc(C(F)F)cc3=O)c(Cl)cc2[C@@](C#CC2CC2)(C(F)(F)F)O1` [Example 18, (S)-6-chloro-4-(cyclopropylethynyl)-7-((4-(difluoromethyl)-6-oxopyrimidin-1(6H)-yl)methyl)-4-(trifluoromethyl)-1,4-dihydro-2H-benzo[d][1,3]oxazin-2-one] was tested, and the EC50 was 83 nM.
In the case of `N#Cc1c(Cc2cc3c(cc2F)[C@@](C#CC2CC2)(C(F)(F)F)OC(=O)N3)ccnc1N` (single isomer, unassigned) [Example 32A], the EC50 is reported as 111 nM.
`CC(F)(F)[C@@]1(C#CC2CC2)OC(=O)Nc2cc(Cn3cnccc3=O)ccc21` [Example 9, (S)-4-(cyclopropylethynyl)-4-(1,1-difluoroethyl)-7-((6-oxopyrimidin-1(6H)-yl)methyl)-1,4-dihydro-2H-benzo[d][1,3]oxazin-2-one] gave an EC50 of 90 nM.
With `O=C1Nc2cc(Cn3cccn3)c(F)cc2[C@@](C#CC2CC2)(C(F)(F)F)O1` (single isomer, unassigned) [Example 29A] the EC50 was 428 nM.
Work on `Cc1cc(=O)n(Cc2ccc3c(c2)NC(=O)O[C@]3(C#CC2CC2)C(C)(F)F)cn1` [Example 10, (S)-4-(cyclopropylethynyl)-4-(1,1-difluoroethyl)-7-((4-methyl-6-oxopyrimidin-1(6H)-yl)methyl)-1,4-dihydro-2H-benzo[d][1,3]oxazin-2-one] yielded an EC50 of 66 nM.
`CC(F)(F)[C@@]1(C#CC2CC2)OC(=O)Nc2cc(Cn3ccnc(N)c3=O)c(F)cc21` [Example 21, (S)-7-((3-amino-2-oxopyrazin-1(2H)-yl)methyl)-4-(cyclopropylethynyl)-4-(1,1-difluoroethyl)-6-fluoro-1,4-dihydro-2H-benzo[d][1,3]oxazin-2-one] gave an EC50 of 12 nM.
Work on `N#Cc1c(Cc2cc3c(cc2Cl)[C@@](C#CC2CC2)(C(F)(F)F)OC(=O)N3)ccnc1N` [Example 33, (S)-2-amino-4-((6-chloro-4-(cyclopropylethynyl)-2-oxo-4-(trifluoromethyl)-1,4-dihydro-2H-benzo[d][1,3]oxazin-7-yl)methyl)nicotinonitrile] yielded an EC50 of 213 nM.
`COCc1cc(=O)n(Cc2cc3c(cc2Cl)[C@@](C#CC2CC2)(C(F)(F)F)OC(=O)N3)cn1` [Example 19, (S)-6-chloro-4-(cyclopropylethynyl)-7-((4-(methoxymethyl)-6-oxopyrimidin-1(6H)-yl)methyl)-4-(trifluoromethyl)-1,4-dihydro-2H-benzo[d][1,3]oxazin-2-one] was tested, and the EC50 was 128 nM.
`Cc1cc(=O)n(Cc2cc3c(cc2F)[C@@](C#CC2CC2)(C(F)(F)F)OC(=O)N3)cn1` (single isomer, unassigned) [Example 6A] gave an EC50 of 43 nM.
`COc1cc(=O)n(Cc2ccc3c(c2)NC(=O)O[C@]3(C#CC2CC2)C(C)(F)F)cn1` [Example 11, (S)-4-(cyclopropylethynyl)-4-(1,1-difluoroethyl)-7-((4-methoxy-6-oxopyrimidin-1(6H)-yl)methyl)-1,4-dihydro-2H-benzo[d][1,3]oxazin-2-one] showed an EC50 of 47 nM.
For `COc1cc(=O)n(Cc2cc3c(cc2Cl)[C@@](C#CC2CC2)(C(C)(F)F)OC(=O)N3)cn1` [Example 13, (S)-6-chloro-4-(cyclopropylethynyl)-4-(1,1-difluoroethyl)-7-((4-methoxy-6-oxopyrimidin-1(6H)-yl)methyl)-1,4-dihydro-2H-benzo[d][1,3]oxazin-2-one], the EC50 was 11 nM.
`O=C1Nc2cc(Cn3cnccc3=O)c(F)cc2[C@@](C#CC2CC2)(C(F)(F)F)O1` (single isomer, unassigned) [Example 2A] gave an EC50 of 88 nM.
In the case of `COc1cc(=O)n(Cc2cc3c(cc2Cl)[C@@](C#CC2CC2)(C(F)(F)F)OC(=O)N3)cn1` [Example 14, (S)-6-chloro-4-(cyclopropylethynyl)-7-((4-methoxy-6-oxopyrimidin-1(6H)-yl)methyl)-4-(trifluoromethyl)-1,4-dihydro-2H-benzo[d][1,3]oxazin-2-one], the EC50 is reported as 63 nM.
With `CC(F)(F)[C@@]1(C#CC2CC2)OC(=O)Nc2cc(Cc3ccnc(N)n3)c(F)cc21` [Example 39, (S)-7-((2-aminopyrimidin-4-yl)methyl)-4-(cyclopropylethynyl)-4-(1,1-difluoroethyl)-6-fluoro-1,4-dihydro-2H-benzo[d][1,3]oxazin-2-one] the EC50 was 16 nM.
